In ChEMBL document CHEMBL4011644, “3-Hydroxy-N'-arylidenepropanehydrazonamides with Halo-Substituted Phenanthrene Scaffolds Cure P. berghei Infected Mice When Administered Perorally” (J Med Chem, 2017):
Calls of active or inactive are those of the source. The rule behind the calls is not given here.

Legend:
[1] = Selectivity index, ratio of IC50 for human HepG2 cells to IC50 for chloroquine-sensitive asexual blood stages of Plasmodium falciparum 3D7; type: toxicity; details: read-out: Ratio IC50
[2] = tested on: Plasmodium falciparum; assay: Antiplasmodial activity against multidrug-resistant asexual blood stages of Plasmodium falciparum Dd2 after 72 hrs by HRP2-based ELISA; type: functional; details: Dd2, 72 h
[3] = tested on: HepG2; assay: Cytotoxicity against human HepG2 cells by CellTiterGlo assay; type: cell-based
[4] = tested on: Plasmodium falciparum; assay: Antiplasmodial activity against chloroquine-sensitive asexual blood stages of Plasmodium falciparum 3D7 after 72 hrs by HRP2-based ELISA; type: functional; details: 3D7, 72 h
[5] = tested on: Mus musculus; assay: Toxicity in NMRI mouse infected with Plasmodium berghei assessed as diarrhea at 50 mg/kg, ip administered at 4, 24, 48, 72 hrs post infection; type: organism-based; details: in vivo
[6] = tested on: Plasmodium berghei; assay: Antiplasmodial activity against Plasmodium berghei infected in NMRI mouse assessed as mean survival time at 50 mg/kg, po administered at 4, 24, 48, 72 hrs post infection by Peter's test (reference value: 6 to 7 day); type: functional
[7] = tested on: Plasmodium berghei; assay: Antiplasmodial activity against Plasmodium berghei infected in NMRI mouse assessed as reduction in parasitemia at 50 mg/kg, po administered at 4, 24, 48, 72 hrs post infection measured on day 4 post infection by Peter's test relative to control; type: functional; parameters: scale not given: the % may be the effect or the level left
[8] = tested on: Mus musculus; assay: Toxicity in NMRI mouse infected with Plasmodium berghei assessed as reduction in physical activity at 50 mg/kg, ip administered at 4, 24, 48, 72 hrs post infection; type: organism-based; details: in vivo
[9] = tested on: Plasmodium berghei; assay: Antiplasmodial activity against Plasmodium berghei infected in NMRI mouse assessed as parasite-free mouse at 50 mg/kg, po administered at 4, 24, 48, 72 hrs post infection measured on day 30 by Peter's test; type: functional, organism-based
[10] = tested on: Plasmodium berghei; assay: Antiplasmodial activity against Plasmodium berghei infected in NMRI mouse assessed as mean survival time at 50 mg/kg, ip administered at 4, 24, 48, 72 hrs post infection by Peter's test (reference value: 6 to 7 day); type: functional
[11] = tested on: Plasmodium berghei; assay: Antiplasmodial activity against Plasmodium berghei infected in NMRI mouse assessed as parasite-free mouse at 50 mg/kg, ip administered at 4, 24, 48, 72 hrs post infection measured on day 30 by Peter's test; type: functional, organism-based
[12] = tested on: Plasmodium berghei; assay: Antiplasmodial activity against Plasmodium berghei infected in NMRI mouse assessed as reduction in parasitemia at 50 mg/kg, ip administered at 4, 24, 48, 72 hrs post infection measured on day 4 post infection by Peter's test relative to control; type: functional; parameters: scale not given: the % may be the effect or the level left
[13] = tested on: Plasmodium falciparum; assay: Gametocytocidal activity against transgenic GFP-fused Plasmodium falciparum NF54 […] stage gametocytes after 72 hrs by Mitotracker Red CMH2XRos staining based confocal microscopic method; type: functional; details: NF54, 72 h
[14] = tested on: Plasmodium falciparum; assay: Gametocytocidal activity against transgenic GFP-fused Plasmodium falciparum NF54 early stage gametocytes after 72 hrs by Mitotracker Red CMH2XRos staining based confocal microscopic method; type: functional; details: NF54, 72 h
[15] = tested on: Plasmodium berghei; assay: […] activity against GFP-fused Plasmodium berghei liver stage parasites infected in human HepG2-A16-CD81-EGFP cells after 48 hrs by luciferase reporter gene assay; type: functional
[16] = tested on: Mus musculus; assay: Toxicity in NMRI mouse infected with Plasmodium berghei assessed as overt toxicity at 50 mg/kg, ip administered at 4, 24, 48, 72 hrs post infection; type: organism-based; details: in vivo
[17] = tested on: Plasmodium berghei; assay: Antiplasmodial activity against Plasmodium berghei infected in NMRI mouse assessed as parasite-free mouse at 30 mg/kg, po administered at 4, 24, 48, 72 hrs post infection measured on day 30 by Peter's test; type: functional, organism-based
[18] = tested on: Plasmodium berghei; assay: Antiplasmodial activity against Plasmodium berghei infected in NMRI mouse assessed as mean survival time at 30 mg/kg, po administered at 4, 24, 48, 72 hrs post infection by Peter's test (reference value: 6 to 7 day); type: functional
[19] = tested on: Plasmodium berghei; assay: Antiplasmodial activity against Plasmodium berghei infected in NMRI mouse assessed as reduction in parasitemia at 30 mg/kg, po administered at 4, 24, 48, 72 hrs post infection measured on day 4 by Peter's test relative to control; type: functional; parameters: scale not given: the % may be the effect or the level left

| SMILES | selectivity ratio [1] | IC50 [2] [nM] | IC50 [3] [nM] | IC50 [4] [nM] | Activity [5] | MST [6] [days] | Activity [7] [%] | Activity [8] | Activity [9] | MST [10] [days] | Activity [11] | Activity [12] [%] | IC50 [13] [nM] | IC50 [14] [nM] | IC50 [15] [nM] | Activity [16] | Activity [17] | MST [18] [days] | Activity [19] [%] |
| --- | --- | --- | --- | --- | --- | --- | --- | --- | --- | --- | --- | --- | --- | --- | --- | --- | --- | --- | --- |
| CCCCC(/C=N/N=C(\N)CC(O)c1cc2ccccc2c2ccccc12)CCCC (stereo unspecified) | 127 | 92 | 7600 | 60 | – | – | – | – | – | – | – | – | – | – | – | – | – | – | – |
| CN1CCN(Cc2cc(/C=N/N=C(\N)CC(O)c3cc4ccccc4c4ccccc34)ccc2O)CC1 (stereo unspecified) | 1620 | 9.2 | 8400 | 5.2 | Non-Toxic | 16 | 98 | Non-Toxic | inactive | 18 | inactive | 97.6 | – | – | – | – | – | – | – |
| CCN(CC)Cc1cc(/C=N/N=C(\N)CC(O)c2cc3ccccc3c3ccccc23)cc(CN(CC)CC)c1O (stereo unspecified) | 9530 | 3.3 | 14300 | 1.5 | Toxic | 11 | 96.7 | Toxic | inactive | 11 | inactive | 99.8 | – | – | – | – | – | – | – |
| N/C(CC(O)c1cc2ccccc2c2ccccc12)=N\N=C\c1ccc(F)cc1 (stereo unspecified) | > 1040 | 1.14 | > 10000 | – | – | – | – | – | – | – | – | – | – | – | – | – | – | – | – |
| N/C(CC(O)c1cc2ccccc2c2ccccc12)=N\N=C\c1ccc(O)c(CN2CCCCC2)c1 (stereo unspecified) | 2900 | 5.4 | 8400 | 2.9 | Non-Toxic | 10.3 | 99 | Non-Toxic | inactive | 16.7 | inactive | 98.7 | – | – | – | – | – | – | – |
| CCN(CC)Cc1cc(/C=N/N=C(\N)CC(O)c2cc3c(Cl)cc(Cl)cc3c3cc(C(F)(F)F)ccc23)ccc1O (stereo unspecified) | 6200 | 13.8 | 42800 | 6.9 | – | 23 | 99.8 | – | inactive | – | – | – | 345 | 453 | 19100 | Non-Toxic | – | – | – |
| CCN(CC)Cc1cc(/C=N/N=C(\N)CC(O)c2cc3ccccc3c3ccccc23)ccc1O (stereo unspecified) | 14700 | 3.4 | 14300 | 0.97 | Non-Toxic | 28.2 | 99.9 | Non-Toxic | inactive | 30 | – | 99.7 | – | – | – | – | – | – | – |
| O=C1C(O)=C([C@H]2CC[C@H](c3ccc(Cl)cc3)CC2)C(=O)c2ccccc21 [ATOVAQUONE] | – | – | – | – | – | – | – | – | – | – | – | – | – | – | 0.26 | – | – | – | – |
| CCN(CC)CCCC(C)Nc1ccnc2cc(Cl)ccc12 (stereo unspecified) [CHLOROQUINE] | – | – | – | – | – | – | – | – | – | – | – | – | – | – | – | – | inactive | – | – |
| CN(C)Cc1cc(/C=N/N=C(\N)CC(O)c2cc3ccccc3c3ccccc23)ccc1O (stereo unspecified) | 6680 | 0.97 | 16700 | 2.5 | Non-Toxic | 24.7 | 99.8 | Non-Toxic | inactive | 22 | inactive | 99.8 | – | – | – | – | – | – | – |
| N/C(CC(O)c1cc2ccccc2c2ccccc12)=N\N=C\C1CCCCC1 (stereo unspecified) | 83 | 720 | 27400 | 330 | – | – | – | – | – | – | – | – | – | – | – | – | – | – | – |
| N/C(CC(O)c1cc2ccccc2c2ccccc12)=N\N=C1CCCCCC1 (stereo unspecified) | 139 | 140 | 25400 | 180 | – | – | – | – | inactive | – | – | – | – | – | – | – | – | – | – |
| CCN(CC)Cc1cccc(/C=N/N=C(\N)CC(O)c2cc3ccccc3c3ccccc23)c1 (stereo unspecified) | 664 | 36 | 16600 | 25 | – | – | – | – | inactive | – | – | – | – | – | – | – | – | – | – |
| N/C(CC(O)c1cc2ccccc2c2ccccc12)=N\N=C\c1ccc(O)c(CN2CCOCC2)c1 (stereo unspecified) | 128 | 44 | 3700 | 29 | Non-Toxic | 9.7 | 89.7 | Non-Toxic | inactive | 14 | inactive | 91.3 | – | – | – | – | – | – | – |
| CCCCC(CCCC)=N/N=C(\N)CC(O)c1cc2ccccc2c2ccccc12 (stereo unspecified) | 1040 | 12 | 8600 | 8.3 | Non-Toxic | – | <40 | Non-Toxic | inactive | 7 | inactive | 64.8 | – | – | – | – | – | – | – |
| O[C@@H](c1cc(C(F)(F)F)nc2c(C(F)(F)F)cccc12)[C@H]1CCCCN1 [(S,R)-MEFLOQUINE] | – | – | – | – | – | – | – | – | – | – | – | – | – | – | – | – | – | 29 | 99.9 |
| C[C@H]1[C@H](OC(=O)CCC(=O)O)O[C@@H]2O[C@@]3(C)CC[C@H]4[C@H](C)CC[C@@H]1[C@@]24OO3 [ARTESUNATE] | – | – | – | – | – | – | – | – | – | – | – | – | – | – | – | – | inactive | 10 | 99 |
